Measured values taken from patent US11357752B2, “Carolacton and derivatives thereof for use in the treatment of cell proliferation disorders” (Helmholtz-Zentrum für Infektionsforschung GmbH, priority 2017, dated 2022).
pIC50, pKd: −log10 of the molar value. Read-outs that look alike come from different tables or passages of the source.

How the values were obtained:
NK-92 cells = assay: CellTiter-Glo luminescent cell viability assay; assay type: cell-based, human; settings: for pIC50: Homo sapiens
Procedure: (§1) To evaluate the effects of one compound on 7 cell lines with a CellTiter-Glo Luminescent Cell Viability Assay. Cells were treated with compounds for 72 hours at 37° C./5% CO2 incubator. Compound stock concentration was 20 mM, concentrations to be assayed 100\50\15\10.5\0.1\0.05\0.01\0.005 pM. • i) Materials and Reagents
(§2) a) Cells in log-phase are collected and counted. Cell suspensions are added to each well of 384-w plate at a suitable density. The margin wells are filled with PBS.
(§3) b) Test compound at various concentrations are added in duplicates
(§4) c) The cells were incubated for 72 h in 370/5% CO 2 incubator.
(§5) d) After incubation, CellTiter-Glo® Reagent is added to each test well and shack for 2 minutes on an orbital shaker.
(§6) e) The plates are shortly centrifuged at 90×g for 30 s and incubated at room temperature for additional 10 minutes to stabilize the luminescent signal.
(§7) f) Luminescence signals are detected on PHERAstar Plus.
(§8) g) Data is collected in Microsoft excel forms and analyzed with GraphPad Prism v.6 software. • iii) Data analysis
(§9) The potential effect of the testing compounds an cell proliferation was calculated by the formula below: Inhibition %=[…]
(§10) Since hsMTHFD2 is expressed in human mitochondria and overexpressed in many tumor cells we next aimed to evaluate its potential as an anticancer compound. To this end IC50 values for carolacton were determined for six different cancer cell lines as well as HUVEC cells as primary non-tumor cells. The CellTiter-Glo luminescent cell viability assay (Promega) was used on triplicate cultures grown for three days. Each cell line was tested in three independent experiments (performed at different times and by different experimentators): First, using natural carolacton purified from culture supernatants of Sorangium cellulosum and solved in methanol; second, using carolacton synthesized de novo according to Schmidt et al. 2012 and solved in DMSO; and third, using synthetic carolacton synthesized de novo according to Schmidt et al. 2012 and solved in methanol.

NCI-N87 cells = assay: CellTiter-Glo luminescent cell viability assay; assay type: cell-based, human; settings: for pIC50: Homo sapiens, NCI-N87, 72 h, 72 h, read-out: IC50 inhibition of cancer cell proliferation
Procedure: as §1, §2, §3, §4, §5, §6, §7, §8, §9, §10

U-937 cells = assay: CellTiter-Glo luminescent cell viability assay; assay type: cell-based, human; settings: for pIC50: Homo sapiens
Procedure: as §1, §2, §3, §4, §5, §6, §7, §8, §9, §10

HCT 116 cells = assay: CellTiter-Glo luminescent cell viability assay; assay type: cell-based, human; settings: for pIC50: Homo sapiens, HCT-116, 72 h, 72 h, read-out: IC50 inhibition of cancer cell proliferation
Procedure: as §1, §2, §3, §4, §5, §6, §7, §8, §9, §10

HUVEC cells = assay: CellTiter-Glo luminescent cell viability assay; assay type: cell-based, human; settings: for pIC50: Homo sapiens, HUVEC
Procedure: as §1, §2, §3, §4, §5, §6, §7, §8, §9, §10

SW626 cells = assay: CellTiter-Glo luminescent cell viability assay; assay type: cell-based, human; settings: for pIC50: Homo sapiens, SW626, 72 h, 72 h, read-out: IC50 inhibition of cancer cell proliferation
Procedure: as §1, §2, §3, §4, §5, §6, §7, §8, §9, §10

spFoID = target: T1, spFoID (Streptococcus pneumoniae serotype 4, UniProt Q97RI9); assay: Surface plasmon resonance assay; assay type: binding, S. pneumoniae; settings: read-out: KD (SPR)
T1 construct: made in house; host or cells: E. coli BL21 (DE3)
T1 sequence (Q97RI9 whole entry): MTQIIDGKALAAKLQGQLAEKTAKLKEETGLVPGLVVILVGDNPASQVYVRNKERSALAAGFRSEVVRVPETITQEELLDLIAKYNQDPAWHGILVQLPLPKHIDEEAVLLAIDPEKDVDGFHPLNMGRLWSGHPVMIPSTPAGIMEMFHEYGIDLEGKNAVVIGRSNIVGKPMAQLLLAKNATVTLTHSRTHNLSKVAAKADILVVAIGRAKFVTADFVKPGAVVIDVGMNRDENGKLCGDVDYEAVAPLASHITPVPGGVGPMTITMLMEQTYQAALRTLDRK
Procedure: All surface plasmon resonance (SPR) experiments described in this study were performed on a Biacore X100 system. Different FoIDs with or without His-tag were coupled on CM5 sensor chips (GE Healthcare) by the amine coupling method using a kit from GE Healthcare Life Sciences (Freiburg, Germany). A pH scouting process was performed before protein immobilization to test the most appropriate buffer and the protein concentration for protein coupling. Finally, 20 μg/mL of ecFoID in 10 mM maleate buffer (pH 6.8), 30 μg/mL of ecFoID Q98H in 10 mM maleate buffer (pH 6.3), 40 μg/mL of ecFoID K54N in 10 mM maleate buffer (pH 5.8), 20 μg/mL of spFoID in 10 mM maleate buffer (pH 6.0) and 15 μg/mL of MTHFD2 (His-tag cleaved) in 10 mM maleate buffer (pH 6.8) were used for coupling. In the protein immobilization procedure, the contact time was calculated based on the pH scouting results to achieve -3000-5000 relative resonance units (RU). The buffer used in the SPR assays was 1×HBS-P buffer (10 mM HEPES pH 7.4, 150 mM NaCl, 0.05% Tween 20). The 1 mM stock solution of carolacton was prepared in 1×HBS-P buffer and diluted to different concentration ranges by two-fold serial dilution. In the SPR assay, the association time was 180 s and the dissociation time was 600 s. Data analysis was performed using the Biacore evaluation software. […]

[1] = HUVEC (primary), natural C, methanol
[2] = HUVEC (primary), synthetic C, DMSO
[3] = HUVEC (primary), synthetic C, methanol

CO[C@H](CC(=O)O)[C@@H](C)C(=O)[C@H](C)/C=C(\C)[C@H]1OC(=O)[C@H](O)[C@H](O)/C=C/[C@H](C)CCC[C@@H]1C [Carolacton, carolacton]
pIC50 (NK-92 cells; NK92, 72 h, NK-92, natural C, methanol, 72 h, read-out: IC50 inhibition of cancer cell proliferation): 7.40 | pIC50 (NK-92 cells; NK92, 72 h, NK-92, synthetic C, DMSO, 72 h, read-out: IC50 inhibition of cancer cell proliferation): < 4.00 | pIC50 (NK-92 cells; NK92, 72 h, read-out: IC50 inhibition of cancer cell proliferation, NK-92, synthetic C, methanal, 72 h): 7.44 | pIC50 (NK-92 cells; NK92, malignant NK-92 cells, read-out: IC50 inhibition of proliferation): 7.41 to 7.43 | Bottom (NK-92 cells; NK-92, natural C, methanol): −9.96 | Top (NK-92 cells; NK-92, natural C, methanol): 91.08 | Bottom (NK-92 cells; NK-92, synthetic C, methanal): 1.208 | Top (NK-92 cells; NK-92, synthetic C, methanal): 91.05 | pIC50 (NCI-N87 cells; natural C, methanol): 6.65 | pIC50 (NCI-N87 cells; synthetic C, DMSO): < 4.00 | pIC50 (NCI-N87 cells; synthetic C, methanol): 6.45 | Bottom (NCI-N87 cells; natural C, methanol): 11.93 | Top (NCI-N87 cells; natural C, methanol): 41.34 | Bottom (NCI-N87 cells; synthetic C, methanol): 6.683 | Top (NCI-N87 cells; synthetic C, methanol): 23.87 | pIC50 (U-937 cells; U-937, 72 h, U-937, natural C, methanol, 72 h, read-out: IC50 inhibition of cancer cell proliferation): 7.97 | pIC50 (U-937 cells; U-937, 72 h, U-937, synthetic C, DMSO, 72 h, read-out: IC50 inhibition of cancer cell proliferation): 7.35 | pIC50 (U-937 cells; U-937, 72 h, U-937, synthetic C, methanol, 72 h, read-out: IC50 inhibition of cancer cell proliferation): 8.16 | pIC50 (U-937 cells; U-937, Lymphoma cells (U-937), read-out: IC50 inhibition of proliferation): 7.35 to 8.17 | Bottom (U-937 cells; U-937, natural C, methanol): =0.0 | Top (U-937 cells; U-937, natural C, methanol): 67.6 | Bottom (U-937 cells; U-937, synthetic C, DMSO): 1.808 | Top (U-937 cells; U-937, synthetic C, DMSO): 61.59 | Bottom (U-937 cells; U-937, synthetic C, methanol): 0 | Top (U-937 cells; U-937, synthetic C, methanol): 60.9 | pIC50 (HCT 116 cells; natural C, methanol): 6.28 | pIC50 (HCT 116 cells; synthetic C, DMSO): 6.54 | pIC50 (HCT 116 cells; synthetic C, methanol): 6.28 | Bottom (HCT 116 cells; natural C, methanol): −1.927 | Top (HCT 116 cells; natural C, methanol): 43.89 | Bottom (HCT 116 cells; synthetic C, DMSO): −1.609 | Top (HCT 116 cells; synthetic C, DMSO): 63.98 | Bottom (HCT 116 cells; synthetic C, methanol): −2.614 | Top (HCT 116 cells; synthetic C, methanol): 63.68 | Bottom (HUVEC cells; [1]): −4.548 | Top (HUVEC cells; [1]): =100.0 | Bottom (HUVEC cells; [2]): −7.188 | Top (HUVEC cells; [2]): =100.0 | Bottom (HUVEC cells; [3]): −3.312 | Top (HUVEC cells; [3]): =100.0 | pIC50 (HUVEC cells; 72 h, HUVEC (primary), natural C, methanol, 72 h, read-out: IC50 inhibition of cell proliferation): 4.32 | pIC50 (HUVEC cells; 72 h, HUVEC (primary), synthetic C, DMSO, 72 h, read-out: IC50 inhibition of cell proliferation): 3.99 | pIC50 (HUVEC cells; HUVEC cells, read-out: IC50): 4.33 | pIC50 (SW626 cells; natural C, methanol): 6.44 | pIC50 (SW626 cells; synthetic C, DMSO): 6.04 | pIC50 (SW626 cells; synthetic C, methanol): 6.00 | Bottom (SW626 cells; natural C, methanol): 1.167 | Top (SW626 cells; natural C, methanol): 42.81 | Bottom (SW626 cells; synthetic C, DMSO): 5.588 | Top (SW626 cells; synthetic C, DMSO): 43.17 | Bottom (SW626 cells; synthetic C, methanol): 3.62 | Top (SW626 cells; synthetic C, methanol): 47.2 | pKd (spFoID): 7.57
